Molecules are shown by their SMILES. “And” between values parts separate entries of the source, which are not always exact repeats. Equal entries are not always repeated. Where two headings read alike, the source gives them in different places. Peptide text beside a SMILES is read from it. * marks the point of attachment. Cbz = O=C(OCc1ccccc1)*

The values below come from PMC11089505, “Structural Elucidation and Antiviral Activity of Covalent Cathepsin L Inhibitors” (Journal of Medicinal Chemistry, 2024).

In data set [1] the target is SARS-CoV-2 Mpro (Severe acute respiratory syndrome coronavirus 2, UniProt P0DTD1). In kind it is binding. Particulars: for ΔTm (for Mpro), 2:1 compound to protein mixing ratio: 8 µM Mpro, pH 7.5, 2% DMSO; for 2:1, Tm average (Mpro): 2:1 compound to protein.
Data set [2] deals with T1, CatL (Homo sapiens, UniProt P07711, T223A).
T1 construct: made in house; host or cells: Komagataella pastoris strain GS115
T1 sequence (P07711 114-333 T223A): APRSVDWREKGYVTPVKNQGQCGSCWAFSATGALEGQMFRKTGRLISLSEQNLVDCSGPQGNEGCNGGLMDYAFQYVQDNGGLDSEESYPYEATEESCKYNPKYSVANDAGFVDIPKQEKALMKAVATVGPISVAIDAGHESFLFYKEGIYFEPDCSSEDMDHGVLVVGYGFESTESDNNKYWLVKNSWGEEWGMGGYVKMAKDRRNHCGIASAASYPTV
The data set can be described thus: NanoDSF, thermal stability of CatL. In kind it is binding. The following applies: for 20:1, Tm average (CatL): 20:1 compound to protein.

Data set [3] can be described thus: Cell viability assay (CellTiter-Blue). The following applies: African green monkey.
[4] abbreviates: 5 µM CatL, pH 5.0, 2% DMSO, 20:1.

As for `CC(C)(C)OC(=O)NCC=O` [BOCA, tert-Butyl N-2-oxoethylcarbamate], in data set [1], the “ΔTm (for Mpro), 2:1 compound to protein mixing ratio” value is -0,3 ± 0,1 °C and the “2:1, Tm average (Mpro)” value was 54.7 °C. The “ΔTm (for Mpro), 2:1 compound to protein mixing ratio” value in data set [1] (listed as N-BOCAAA) is -0.3 °C. The “ΔTm (for CatL), 20:1 compound to protein mixing ratio” value in data set [2] (setting [4]) was 4,4 ± 0,4 °C and 4.4 °C. The “2:1, Tm average (CatL)” value in data set [2] (2:1 compound to protein) is 62.8 °C. Besides, the “20:1, Tm average (CatL)” value in data set [2] worked out at 67.5 °C. The “ΔTm [K] for CatL, 2:1 ratio” value in data set [2] (Table S1, 2:1 ratio) is reported as -0.3 ± 0.1 K.
Turning to `CC(C)[C@H](NC(=O)OCc1ccccc1)C(=O)N[C@H](C=O)Cc1ccccc1` [CIII] (Cbz-Val-Phe-aldehyde), in data set [3], the viability at 48 h, 1e-05 µM came out at 95.8%; the viability at 48 h, 0.0001 µM came to 95.4%; the viability at 48 h, 0.001 µM was 94.2%; the viability at 48 h, 0.01 µM was found to be 95.3%. In data set [3], the viability at 48 h, 0.1 µM came to 96%; the viability at 48 h, 1 µM turned out to be 98.9%; the viability at 48 h, 10 µM amounted to 100%.
Consider `CC(C)C[C@@H](C=O)NC(=O)[C@@H](NS(=O)(=O)c1ccc(F)cc1)C(C)C` [CIVI], for which, in data set [3], the viability at 48 h, 1e-05 µM was 95.9%; the viability at 48 h, 0.0001 µM turned out to be 96.7%; the viability at 48 h, 0.001 µM stood at 93.8%; the viability at 48 h, 0.01 µM was 95.9%. Besides, in data set [3], the viability at 48 h, 0.1 µM was found to be 95.1%; the viability at 48 h, 1 µM amounted to 98.8%; the viability at 48 h, 10 µM is 98.3%.
As for `CCCC(NC(=O)C(CC(C)C)NC(=O)OCc1ccccc1)C(=O)C(=O)NCc1ccccn1` (centres unmarked) [CIXII], in data set [3], the viability at 48 h, 1e-05 µM amounted to 98.9%; the viability at 48 h, 0.0001 µM was determined as 98.8%; the viability at 48 h, 0.001 µM stood at 98.3%; the viability at 48 h, 0.01 µM is 100%. Moreover, in data set [3], the viability at 48 h, 0.1 µM was found to be 98.8%; the viability at 48 h, 1 µM was 103%; the viability at 48 h, 10 µM is 106%.
Turning to `CC[C@@H](C)[C@H](NS(=O)(=O)c1cccc2ccccc12)C(=O)N[C@H](C=O)Cc1c[nH]c2ccccc12` [CLIIV], in data set [3], the viability at 48 h, 1e-05 µM amounted to 98.8%; the viability at 48 h, 0.0001 µM is 101%; the viability at 48 h, 0.001 µM was 98%; the viability at 48 h, 0.01 µM stood at 100%. In data set [3], the viability at 48 h, 0.1 µM was 98.7%; the viability at 48 h, 1 µM is 102%; the viability at 48 h, 10 µM is 101%.
For `CN(C)C(=O)COC(=O)Cc1ccc(OC(=O)c2ccc(NC(=N)N)cc2)cc1` [Camostat], in data set [1], the “ΔTm (for Mpro), 2:1 compound to protein mixing ratio” value was -0.4 °C and the “2:1, Tm average (Mpro)” value worked out at 54.6 °C. Further, in data set [2] (setting [4]), the “ΔTm (for CatL), 20:1 compound to protein mixing ratio” value is -0.2 °C. The “20:1, Tm average (CatL)” value in data set [2] came to 62.9 °C.
With `CCOC(=O)[C@H]1O[C@@H]1C(=O)N[C@@H](CC(C)C)C(=O)NCCC(C)C` [E-64d, Ethyl (2S,3S)-3-[[(2S)-4-methyl-1-(3-methylbutylamino)-1-oxopentan-2-yl]carbamoyl]oxirane-2-carboxylate], in data set [1], the “ΔTm (for Mpro), 2:1 compound to protein mixing ratio” value is -0,3 ± 0,3 °C and the “2:1, Tm average (Mpro)” value was found to be 54.7 °C. Besides, the “ΔTm (for Mpro), 2:1 compound to protein mixing ratio” value in data set [1] (listed as E-64d/Aloxistatin) was -0.3 °C. In data set [2] (5 µM CatL, pH 5.0, 2% DMSO, 2:1), the “ΔTm (for CatL), 2:1 compound to protein mixing ratio” value is 4,5 ± 0,1 °C and 4.5 °C. Besides, the “ΔTm (for CatL), 20:1 compound to protein mixing ratio” value in data set [2] (setting [4]) was 11,7 ± 0,4 °C and 11.7 °C. In data set [2] (2:1 compound to protein), the “2:1, Tm average (CatL)” value is 67.6 °C. Besides, in data set [2], the “20:1, Tm average (CatL)” value amounted to 74.8 °C. The “ΔTm [K] for CatL, 2:1 ratio” value in data set [2] (Table S1, 2:1 ratio) was determined as 4.5 ± 0.1 K.
Turning to `CC(=O)N[C@@H](CC(C)C)C(=O)N[C@@H](CC(C)C)C(=O)N[C@H](C=O)CCCNC(=N)N` [Leupeptin], in data set [1], the “ΔTm (for Mpro), 2:1 compound to protein mixing ratio” value was 1,2 ± 0,1 °C and 1.2 °C; the “2:1, Tm average (Mpro)” value came out at 56.2 °C.
`Cc1ccc(S(=O)(=O)N[C@@H](Cc2ccccc2)C(=O)CCl)cc1` [TPCK, N-α-Tosyl-L-phenylalanyl chloromethyl ketone]: in data set [2], the “2:1, Tm average (CatL)” value was found to be 67.8 °C and the “ΔTm [K] for CatL, 2:1 ratio” value is given as 4.7 ± 0.1 K. Also, in data set [2] (pH 5), the “ΔTm (for CatL), 2:1 compound to protein mixing ratio” value is 4,7 ± 0,1 °C and 4.7 °C; the “ΔTm (for CatL), 20:1 compound to protein mixing ratio” value was 7,0 ± 0,1 °C and 7 °C.
